Source: ChEMBL document CHEMBL1143485, “The synthesis and biological evaluation of dopamine transporter inhibiting activity of substituted diphenylmethoxypiperidines” (Bioorg Med Chem Lett, 2005)
pIC50: −log10 of the molar value.

Experiments:
[1] = target: Sodium-dependent dopamine transporter (Rattus norvegicus, UniProt P23977); experiment: Displacement of [125I]RTI-55 dopamine transporter binding in rat striatal membrane; assay type: cell membranes, Striatum
Mus musculus = experiment: Locomotor activity in mice after intraperitoneal administration at 17.8 […]; assay type: functional

Sodium-dependent dopamine transporter, sequence (P23977 whole entry): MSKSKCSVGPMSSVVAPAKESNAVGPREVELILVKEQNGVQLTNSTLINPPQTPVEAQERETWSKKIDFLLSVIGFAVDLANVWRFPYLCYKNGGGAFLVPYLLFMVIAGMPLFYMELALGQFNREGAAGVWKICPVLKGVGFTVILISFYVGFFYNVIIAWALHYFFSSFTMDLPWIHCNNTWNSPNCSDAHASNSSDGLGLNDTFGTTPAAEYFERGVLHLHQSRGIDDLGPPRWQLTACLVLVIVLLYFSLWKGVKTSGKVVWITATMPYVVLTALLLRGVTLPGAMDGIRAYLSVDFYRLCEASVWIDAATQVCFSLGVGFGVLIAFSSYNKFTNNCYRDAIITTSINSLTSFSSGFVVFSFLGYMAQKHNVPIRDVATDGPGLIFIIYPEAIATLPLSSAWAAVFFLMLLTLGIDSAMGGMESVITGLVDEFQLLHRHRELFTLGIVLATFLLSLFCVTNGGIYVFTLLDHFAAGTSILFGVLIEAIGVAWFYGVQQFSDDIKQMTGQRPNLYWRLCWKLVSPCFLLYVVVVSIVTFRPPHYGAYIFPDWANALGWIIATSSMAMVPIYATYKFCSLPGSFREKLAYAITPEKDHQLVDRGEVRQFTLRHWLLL

Row | SMILES | pIC50 [1] | Activity (Mus musculus) [m/3h]
1 | CC(OC1CCN(C)CC1)c1ccc(F)cc1 (centres undefined) | 6.58 | 
2 | Fc1ccc(CN2CCC(OC(c3ccc(Cl)cc3)c3ccc(Cl)cc3)CC2)cc1 | 7.30 | 
3 | Cc1cccc(C(OC2CCN(C)CC2)c2ccccc2)c1 (centres undefined) | 6.53 | 
4 | CCCCN1CCC(OC(c2ccc(Cl)cc2)c2ccc(Cl)cc2)CC1 | 7.90 | 3.87
5 | CN1CCC(OC(c2ccccc2)c2ccc(Cl)cc2)CC1 (centres undefined) | 6.81 | 5.89
6 | Fc1ccc(C(OCCN2CCN(CCCc3ccccc3)CC2)c2ccc(F)cc2)cc1 [VANOXERINE] |  | 26.3
7 | CN1CCC(OC(c2ccccc2)c2ccccc2)CC1 |  | 12.2
8 | COC(=O)[C@H]1[C@@H](OC(=O)c2ccccc2)C[C@@H]2CC[C@H]1N2C [COCAINE] |  | 16.7
9 | CN1CCC(OC(c2ccccc2)c2ccc(F)cc2)CC1 (centres undefined) | 6.56 | 
10 | CN1CCC(OC(c2ccc(F)cc2)c2ccc(F)cc2)CC1 |  | 34.8
11 | CN1CCC(OC(c2ccc(Cl)cc2)c2ccc(Cl)cc2)CC1 | 7.36 | 5.18
